Entries after “also recorded” stand apart in the source; their conditions may differ.
How the values were obtained:
microorganisms [1] = assay: Targeting peptide binding to target microorganisms (Tables 3, 10, 12); settings: microorganism(s) the targeting peptide binds, preferably 1x PBS
microorganisms [2] = assay: Morphology, biofilm and growth disrupting peptides (Table 5); type: cell-based; set-up: key: A: Peptide aggregates; B: Less hyphal formation; Clumps; Diffuse clumps and small polyps; F: Diffuse growth; H: Thin; I: Growth inhibition; Microcolony formation; Rippled; Small polyps; Thick; W: Halo formation on top, microlonies on bottom
Source text: In certain embodiments peptides that induce alterations in phenotype or other biological activities can also be used as antimicrobial effector moieties.

microorganisms [3] = assay: Peptide activities: targeting/binding, antimicrobial, growth or phenotype altering (Tables 7, 8); type: cell-based; settings: peptides having multiple activities
[4] = binding in aqueous buffers varied with peptide solubility
[5] = binding in aqueous buffers that varied with peptide solubility

Substance | Target(s) (microorganisms [1]; [4]) | Activities (microorganisms [3]) | Organism, effect (microorganisms [2]; S. pneumoniae) | Organism, effect: S. epidermidis (microorganisms [2]; S. epidermidis) | Organism, effect: MRSA (microorganisms [2]; MRSA) | further results
PF-C075: peptide having multiple activities (KALVISVFAIVFSIIFVKFFYWRDKK; Peptide with targeting and/or antimicrobial activity) | A. naeslundii; also recorded: F. nucleatum; also recorded: P. gingivalis; also recorded: S. mutans; also recorded: T. denticola | G B |  |  |  | Organism, effect (microorganisms [2]; F. nucleatum): F. nucleatum (T); Organism, effect (microorganisms [2]; P. gingivalis): P. gingivalis (R); Organism, effect (microorganisms [2]; S. mutans): S. mutans (F)
PF-572: peptide having multiple activities (WRASKGLPGFKAG; Peptide with targeting and/or antimicrobial activity) | S. epidermidis; also recorded: M. luteus; also recorded: E. coli; also recorded: S. pneumoniae; also recorded: C. jeikeium | G B | S. pneumoniae (R) |  |  | Organism, effect (microorganisms [2]; B. subtilis): B. subtilis (D)
PF-566: peptide having multiple activities (EAQQVTQQLGADFNAITTPTATKV; Peptide with targeting and/or antimicrobial activity) | P. mirabilis; also recorded: S. pneumoniae | G B | S. pneumoniae (D) |  |  | Organism, effect (microorganisms [2]; B. subtilis): B. subtilis (C); Organism, effect (microorganisms [2]; C. jeikeium): C. jeikeium (C); Organism, effect (microorganisms [2]; C. jejuni): C. jejuni (D); Organism, effect (microorganisms [2]; M. luteus): M. luteus (D); Organism, effect (microorganisms [2]; MRSA): MRSA (M)
PF-176: peptide having multiple activities (RLTSNQFLTRITPFVFAQH; Peptide with targeting and/or antimicrobial activity) | S. epidermidis and M. luteus and P. mirabilis and E. coli and C. albicans and MRSA and E. faecalis and C. jeikeium | G B |  | S. epidermidis (C) |  | Organism, effect: C. jeikeium (microorganisms [2]; C. jeikeium): C. jeikeium (D); Organism, effect: M. luteus (microorganisms [2]; M. luteus): M. luteus (C)
PF-135: peptide having multiple activities (chain 1 PPARPARIPQTPTLHGASLFRQRS; chain 2 PPARPARIPQTPTLHGASLFRQRS; Peptide with targeting and/or antimicrobial activity) | S. epidermidis and M. luteus and E. coli and P. aeruginosa and MRSA and C. jeikeium and M. smegmatis | G B |  |  |  | Organism, effect: C. jeikeium (microorganisms [2]; C. jeikeium): C. jeikeium (R)
PF-636: peptide having multiple activities (chain 1 LVRLA; chain 2 LVRLA; Peptide with targeting and/or antimicrobial activity) | S. epidermidis and C. albicans and MRSA and S. pneumoniae and E. faecalis | G B | S. pneumoniae (H) |  |  | Organism, effect (microorganisms [2]; B. subtilis): B. subtilis (H); Organism, effect (microorganisms [2]; C. albicans): C. albicans (B); Organism, effect (microorganisms [2]; E. faecalis): E. faecalis (H)
PF-180: peptide having multiple activities (SGLGDLGFSSEAK; Peptide with targeting and/or antimicrobial activity) | S. epidermidis and M. luteus and P. aeruginosa and C. albicans and MRSA and E. faecalis and C. jejuni and M. smegmatis | G B |  | S. epidermidis (C) |  | 
PF-762: peptide having multiple activities (PAPAPSAPAPAPEQPEQPA; Peptide with targeting and/or antimicrobial activity) | M. luteus; also recorded: C. albicans | G B | S. pneumoniae (H) |  |  | 
PF-208: peptide having multiple activities (DAYHCHLVRSPDAHDLSMRIGFV; Peptide with targeting and/or antimicrobial activity) | S. epidermidis and C. albicans and MRSA and S. pneumoniae and E. faecalis and C. jeikeium and C. jejuni | G B |  | S. epidermidis (D) |  | Organism, effect: C. jeikeium (microorganisms [2]; C. jeikeium): C. jeikeium (A)
LSPRPIIVSRRSRADNNNDWSR [PF-143] | S. epidermidis and MRSA and C. jeikeium | G B |  |  |  | Organism, effect: P. aeruginosa (microorganisms [2]; P. aeruginosa): P. aeruginosa (C)
PF-681: peptide having multiple activities (TALTTVGVSGARLITYCVGVEDI; Peptide with targeting and/or antimicrobial activity) | M. smegmatis | G B | S. pneumoniae (M) |  |  | Organism, effect (microorganisms [2]; C. jeikeium): C. jeikeium (R); Organism, effect (microorganisms [2]; E. faecalis): E. faecalis (R); Organism, effect (microorganisms [2]; MRSA): MRSA (M); Organism, effect (microorganisms [2]; S. epidermidis): S. epidermidis (M)
PF-686: peptide having multiple activities (LAVLMGYIGYRGWSGKRHINRQ; Peptide with targeting and/or antimicrobial activity) | M. smegmatis | G B | S. pneumoniae (A) |  |  | Organism, effect (microorganisms [2]; B. subtilis): B. subtilis (I); Organism, effect (microorganisms [2]; C. albicans): C. albicans (B); Organism, effect (microorganisms [2]; E. faecalis): E. faecalis (R); Organism, effect (microorganisms [2]; MRSA): MRSA (M); Organism, effect (microorganisms [2]; S. epidermidis): S. epidermidis (H)
PF-594: peptide having multiple activities (chain 1 IVSAIV; chain 2 IVSAIV; Peptide with targeting and/or antimicrobial activity) | C. jeikeium | G B |  |  |  | Organism, effect (microorganisms [2]; E. faecalis): E. faecalis (C)
PF-046: peptide having multiple activities (LDFYLTKHLTLML; Peptide with targeting and/or antimicrobial activity) |  | G B |  | S. epidermidis (C) | MRSA (R) | Target(s) (microorganisms [1]; [5]): E. coli; also recorded: E. faecalis; also recorded: C. jeikeium; Organism, effect: C. jeikeium (microorganisms [2]; C. jeikeium): C. jeikeium (R)
PF-021: peptide having multiple activities (FSLNFSKQKYVTVN; Peptide with targeting and/or antimicrobial activity) |  | G B |  | S. epidermidis (A) | MRSA (R) | Target(s) (microorganisms [1]; [5]): S. epidermidis; also recorded: M. luteus; also recorded: P. mirabilis; also recorded: E. coli; also recorded: C. albicans; also recorded: E. faecalis; also recorded: C. jeikeium; Organism, effect: C. jeikeium (microorganisms [2]; C. jeikeium): C. jeikeium (R); Organism, effect: M. luteus (microorganisms [2]; M. luteus): M. luteus (A)
PF-058: peptide having multiple activities (FADQSQDNA; Peptide with targeting and/or antimicrobial activity) |  | G B |  |  | MRSA (M) | Target(s) (microorganisms [1]; [5]): S. epidermidis and M. luteus and E. coli and C. albicans and MRSA and C. jeikeium and C. jejuni
PF-444: peptide having multiple activities (MAAKLWEEGKMVYASSASMTKRLKLAMSKV; Peptide with targeting and/or antimicrobial activity) | M. luteus; also recorded: C. albicans; also recorded: S. pneumoniae; also recorded: C. jeikeium | G B | S. pneumoniae (R) |  |  | Organism, effect (microorganisms [2]; E. coli): E. coli (R); Organism, effect (microorganisms [2]; E. faecalis): E. faecalis (C); Organism, effect (microorganisms [2]; MRSA): MRSA (C); Organism, effect (microorganisms [2]; S. epidermidis): S. epidermidis (C)
PF-427: peptide having multiple activities (chain 1 YVLEYHGLRATQDVDAFMAL; chain 2 YVLEYHGLRATQDVDAFMAL; Peptide with targeting and/or antimicrobial activity) | M. luteus; also recorded: P. aeruginosa; also recorded: C. albicans; also recorded: C. jejuni | G B | S. pneumoniae (R) |  |  | Organism, effect (microorganisms [2]; E. coli): E. coli (C); Organism, effect (microorganisms [2]; E. faecalis): E. faecalis (C); Organism, effect (microorganisms [2]; MRSA): MRSA (C)
PF-392: peptide having multiple activities (chain 1 DPAGCNDIVRKYCK; chain 2 DPAGCNDIVRKYCK; Peptide with targeting and/or antimicrobial activity) | S. epidermidis; also recorded: B. subtilis; also recorded: S. pneumoniae; also recorded: C. jeikeium; also recorded: C. jejuni | G B |  |  | MRSA (S) | Organism, effect: C. jejuni (microorganisms [2]; C. jejuni): C. jejuni (A); Organism, effect: E. faecalis (microorganisms [2]; E. faecalis): E. faecalis (A)
PF-417: peptide having multiple activities (chain 1 DSYFRS; chain 2 DSYFRS; Peptide with targeting and/or antimicrobial activity) | S. epidermidis; also recorded: C. jeikeium; also recorded: C. jejuni | G B |  | S. epidermidis (M) | MRSA (M) | Organism, effect: S. pneumoniae (microorganisms [2]; S. pneumoniae): S. pneumoniae (M)
PF-408: peptide having multiple activities (chain 1 YCVPLGNMGNMNNKIW; chain 2 YCVPLGNMGNMNNKIW; Peptide with targeting and/or antimicrobial activity) | S. epidermidis and E. coli and P. aeruginosa and MRSA and E. faecalis and C. jeikeium and C. jejuni | G B |  | S. epidermidis (M) | MRSA (M) | 
PF-149: peptide having multiple activities (chain 1 GKVSVLTRVPRSLGGAPANQ; chain 2 GKVSVLTRVPRSLGGAPANQ; Peptide with targeting and/or antimicrobial activity) | S. epidermidis and M. luteus and E. coli and MRSA and C. jeikeium | G B |  |  | MRSA (H) | 
